Measurements: PubChem BioAssay (NCI)
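Dose response: 5 concentrations. Exposure: 48 h. Format: 96-well plates. Endpoint: linear interpolation; highest concentration if not reached. TGI: concentration producing complete growth inhibition.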

Assays:
Assay in all cases: growth of human tumour cells (NCI), 48 h
[1] = test system: 786-0 renal
[2] = test system: A498 renal
[3] = test system: A549 NSCLC
[4] = test system: ACHN renal
[5] = test system: CAKI-1 renal
[6] = test system: CCRF-CEM leukemia
[7] = test system: COLO 205 colon
[8] = test system: DLD-1 colon
[9] = test system: DMS 114 small cell lung
[10] = test system: DMS 273 small cell lung
[11] = test system: EKVX NSCLC
[12] = test system: HCC-2998 colon
[13] = test system: HCT-116 colon
[14] = test system: HCT-15 colon
[15] = test system: HL-60(TB) leukemia
[16] = test system: HOP-18 NSCLC
[17] = test system: HOP-62 NSCLC
[18] = test system: HOP-92 NSCLC
[19] = test system: HT29 colon
[20] = test system: IGROV1 ovarian
[21] = test system: K-562 leukemia
[22] = test system: KM12 colon
[23] = test system: KM20L2 colon
[24] = test system: LOX IMVI melanoma
[25] = test system: LXFL 529 NSCLC
[26] = test system: M14 melanoma
[27] = test system: M19-MEL melanoma
[28] = test system: MALME-3M melanoma
[29] = test system: MOLT-4 leukemia
[30] = test system: NCI-H226 lung
[31] = test system: NCI-H23 lung
[32] = test system: NCI-H460 lung
[33] = test system: NCI-H522 lung
[34] = test system: OVCAR-3 ovarian
[35] = test system: OVCAR-4 ovarian
[36] = test system: OVCAR-5 ovarian
[37] = test system: OVCAR-8 ovarian
[38] = test system: RPMI-8226 leukemia
[39] = test system: RXF 393 renal
[40] = test system: SF-268 CNS
[41] = test system: SF-295 CNS
[42] = test system: SF-539 CNS
[43] = test system: SK-MEL-2 melanoma
[44] = test system: SK-MEL-28 melanoma
[45] = test system: SK-MEL-5 melanoma
[46] = test system: SK-OV-3 ovarian
[47] = test system: SN12C renal
[48] = test system: SNB-19 CNS
[49] = test system: SNB-75 CNS
[50] = test system: SNB-78 CNS
[51] = test system: SR leukemia
[52] = test system: SW-620 colon
[53] = test system: TK-10 renal
[54] = test system: U251 CNS
[55] = test system: UACC-257 melanoma
[56] = test system: UACC-62 melanoma
[57] = test system: UO-31 renal
[58] = test system: XF 498 CNS

Measured: TGI

CN=c1ss/c(=N\C(=S)N(C)C)n1-c1ccccc1
42.6 µM: [49]
> 28.5 µM: [33]
> 31.6 µM: [19]
> 82.1 µM: [39]
not listed: [58]
> 100 µM: all other assays above

COC1=CC(=O)[C@]2(C)[C@H](C1=O)C(C)[C@H]2c1ccc(OC)cc1 (stereo not given in full)
not listed: [9] | [13] | [16] | [23] | [47]
> 100 µM: all other assays above
